Measured values: patent publication US11986540B2, “Compositions including pafolacianine for the identification of malignant lesions” (ON TARGET LABORATORIES, LLC., priority 2022, dated 2024)
Like-named read-outs stand apart in the source and are kept apart here.

Tests used:
[1] = system: FR-positive KB cell tumor xenografts; assay: Whole body imaging and tissue distribution, FR-positive KB tumor xenografts; type: in vivo, mice
Procedure: Whole body imaging and tissue distribution of pafolacianine and OTL0039 was performed in female nu/nu mice bearing FR-positive KB cell tumor xenografts. […] This observation was consistent with the lower binding affinity of the D-isomer for FR compared with the L-isomer. Tumor fluorescence was brighter in mice receiving pafolacianine compared with other folate-conjugated near infrared dyes such as LS288, IR800 and ZW800.
The optimal dose range for pafolacianine with respect to tumor-to-background ratio in FR-positive tumor-bearing mice was 1 to 30 nmol/mouse, with lower fluorescence intensity observed in tumors at a lower dose (0.3 nmol) and higher fluorescence intensity observed in other tissues at doses above 30 nmol. In a second experiment, pafolacianine whole body imaging and tissue distribution was examined again; however, this experiment was performed in female nu/nu mice bearing FR-negative A549 cell tumor xenografts.

[2] = system: panel of 55 pharmacologically-relevant receptors, ion channels and transporters; assay: In vitro ligand binding screen (ExpresSProfile; Cerep); settings: 5 μM
Procedure: Pafolacianine (5 μM) was evaluated in an in vitro ligand binding screen (ExpresSProfile; Cerep 100010238), which assessed the potential for pafolacianine “off-target” binding to a broad panel of 55 pharmacologically-relevant receptors, ion channels and transporters.

[3] = Repeat once-weekly IV dose toxicokinetics in rats; type: in vivo; settings: for increase in AUCinf: after 14.9-fold increase in dose; for half-life / AUC(0-inf) / C0 / clearance / Vd: rat, in vivo; for Vd: read-out: Vss
Procedure: […] On both Day 1 and Day 13, increases in pafolacianine exposure (AUCinf) were trending slightly greater than dose proportional, noting that sparse blood sampling was employed so the variability in the AUCs could not be assessed. […] CL was slow (relative to hepatic blood flow) and Vss was moderate. Mean T1/2 ranged from approximately 6 to 11 hours.

[4] = Plasma protein binding, equilibrium dialysis, rat plasma; type: in vitro ADME; settings: Sprague Dawley, read-out: mean (±SD) percentage of plasma protein bound (converted)
Procedure: The plasma protein binding of pafolacianine was studied in vitro in fresh human, Sprague Dawley rat, and Beagle dog plasma using equilibrium dialysis. Pafolacianine was introduced into plasma samples, in duplicate, resulting in a final concentration of 5 μM. The mean (±SD) percentage of plasma protein bound pafolacianine was 99.1±0.1%, 98.6±0.1%, and 93.7±1.5% for rat, dog and human, respectively. Pafolacianine was highly bound to plasma protein in all species examined.

[5] = Partitioning into red blood cells; type: in vitro ADME
[6] = Embryo-fetal development study in rats; type: in vivo
Procedure: (§1) Pafolacianine was intravenously administered at doses of, during the period of organogenesis namely, 0.015, 0.15, and 1.5 mg/kg/day from gestational day (GD) 6 to GD17 in rats (human equivalent doses (HEDs) of 0.002, 0.024 and 0.242 mg/kg/day) and 0.3, 1, and 3 mg/kg/day from GD7 to GD20 in rabbits (HEDs of 0.097, 0.323 and 0.968 mg/kg/day). […] No-Observed-Adverse-Effect-Levels were 1.5 mg/kg/day in rats and 3 mg/kg/day in rabbits.

[7] = Embryo-fetal development study in rabbits; type: in vivo
Procedure: as §1

[8] = female, iv, 3.1 mg/kg, rats F, 3.1 mg/kg once-weekly IV, Day 0
[9] = female, iv, 3.1 mg/kg, rats F, 3.1 mg/kg once-weekly IV, Day 13
[10] = female, iv, 30.8 mg/kg, rats F, 30.8 mg/kg once-weekly IV, Day 0
[11] = female, iv, 30.8 mg/kg, rats F, 30.8 mg/kg once-weekly IV, Day 13
[12] = female, iv, 46.3 mg/kg, rats F, 46.3 mg/kg once-weekly IV, Day 0
[13] = female, iv, 46.3 mg/kg, rats F, 46.3 mg/kg once-weekly IV, Day 13
[14] = male, iv, 3.1 mg/kg, rats M, 3.1 mg/kg once-weekly IV, Day 0
[15] = male, iv, 3.1 mg/kg, rats M, 3.1 mg/kg once-weekly IV, Day 13
[16] = male, iv, 30.8 mg/kg, rats M, 30.8 mg/kg once-weekly IV, Day 0
[17] = male, iv, 30.8 mg/kg, rats M, 30.8 mg/kg once-weekly IV, Day 13
[18] = male, iv, 46.3 mg/kg, rats M, 46.3 mg/kg once-weekly IV, Day 0
[19] = male, iv, 46.3 mg/kg, rats M, 46.3 mg/kg once-weekly IV, Day 13
[20] = rats F, 3.1 mg/kg once-weekly IV, Day 13
[21] = rats F, 30.8 mg/kg once-weekly IV, Day 13
[22] = rats F, 46.3 mg/kg once-weekly IV, Day 13
[23] = rats M, 3.1 mg/kg once-weekly IV, Day 13
[24] = rats M, 30.8 mg/kg once-weekly IV, Day 13
[25] = rats M, 46.3 mg/kg once-weekly IV, Day 13

SMILES: CC1(C)C(=CC=C2CCCC(C=CC3=[N+](CCCCS(=O)(=O)[O-])c4ccc(S(=O)(=O)O)cc4C3(C)C)=C2Oc2ccc(CC(NC(=O)c3ccc(NCc4cnc5nc(N)[nH]c(=O)c5n4)cc3)C(=O)O)cc2)N(CCCCS(=O)(=O)O)c2ccc(S(=O)(=O)O)cc21 (stereo not drawn) [pafolacianine]
- fluorescence in all other normal tissues ([1]; 2.5 hours after IV 10 nmol): little or no fluorescence signal
- fluorescence in kidneys ([1]; 2.5 hours after IV 10 nmol): fluorescence signal also observed in the kidneys
- fluorescence in tumors ([1]; 2.5 hours after IV 10 nmol): fluorescence primarily in the tumors
- tumor-to-normal tissue fluorescence ratios ([1]; 2.5 hours after IV 10 nmol): excellent
- tumor fluorescence compared with other folate-conjugated near infrared dyes (LS288, IR800, ZW800) ([1]; mouse, in vivo): brighter
- affinity to off-target proteins [2]: no significant affinity
- increase in AUCinf ([3]; Day 1, genders combined): ~18 fold
- increase in AUCinf ([3]; Day 13, genders combined): ~20 fold
- half-life ([3]; both sexes, intravenous, rats, all doses and days, read-out: Mean T1/2 range): 6 to 11 h
- AUC(0-inf) [3, 8]: 19.1 µg·h/mL
- C0 [3, 8]: 21.2 µg/mL
- clearance [3, 8]: 2.72 mL/min/kg
- half-life ([3]; female, iv, 3.1 mg/kg, rats F, 3.1 mg/kg once-weekly IV, Day 0, read-out: T1/2 (converted)): 7.18 h
- Vd [3, 8]: 1.08 L/kg
- AUC(0-inf) [3, 9]: 16.6 µg·h/mL
- C0 [3, 9]: 4.76 µg/mL
- clearance [3, 9]: 3.1 mL/min/kg
- half-life ([3]; female, iv, 3.1 mg/kg, rats F, 3.1 mg/kg once-weekly IV, Day 13, read-out: T1/2 (converted)): 8.43 h
- Vd [3, 9]: 1.7 L/kg
- AUC(0-inf) [3, 10]: 237 µg·h/mL
- C0 [3, 10]: 194 µg/mL
- clearance [3, 10]: 2.17 mL/min/kg
- half-life ([3]; female, iv, 30.8 mg/kg, rats F, 30.8 mg/kg once-weekly IV, Day 0, read-out: T1/2 (converted)): 8.69 h
- Vd [3, 10]: 1.14 L/kg
- AUC(0-inf) [3, 11]: 291 µg·h/mL
- C0 [3, 11]: 105 µg/mL
- clearance [3, 11]: 1.77 mL/min/kg
- half-life ([3]; female, iv, 30.8 mg/kg, rats F, 30.8 mg/kg once-weekly IV, Day 13, read-out: T1/2 (converted)): 6.06 h
- Vd [3, 11]: 0.773 L/kg
- AUC(0-inf) [3, 12]: 361 µg·h/mL
- C0 [3, 12]: 245 µg/mL
- clearance [3, 12]: 2.13 mL/min/kg
- half-life ([3]; female, iv, 46.3 mg/kg, rats F, 46.3 mg/kg once-weekly IV, Day 0, read-out: T1/2 (converted)): 9.76 h
- Vd [3, 12]: 1.29 L/kg
- AUC(0-inf) [3, 13]: 387 µg·h/mL
- C0 [3, 13]: 240 µg/mL
- clearance [3, 13]: 2 mL/min/kg
- half-life ([3]; female, iv, 46.3 mg/kg, rats F, 46.3 mg/kg once-weekly IV, Day 13, read-out: T1/2 (converted)): 5.76 h
- Vd [3, 13]: 0.806 L/kg
- AUC(0-inf) [3, 14]: 19.2 µg·h/mL
- C0 [3, 14]: 27.7 µg/mL
- clearance [3, 14]: 2.68 mL/min/kg
- half-life ([3]; male, iv, 3.1 mg/kg, rats M, 3.1 mg/kg once-weekly IV, Day 0, read-out: T1/2 (converted)): 8.25 h
- Vd [3, 14]: 1.24 L/kg
- AUC(0-inf) [3, 15]: 21 µg·h/mL
- C0 [3, 15]: 24 µg/mL
- clearance [3, 15]: 2.47 mL/min/kg
- half-life ([3]; male, iv, 3.1 mg/kg, rats M, 3.1 mg/kg once-weekly IV, Day 13, read-out: T1/2 (converted)): 9.67 h
- Vd [3, 15]: 1.5 L/kg
- AUC(0-inf) [3, 16]: 235 µg·h/mL
- C0 [3, 16]: 165 µg/mL
- clearance [3, 16]: 2.18 mL/min/kg
- half-life ([3]; male, iv, 30.8 mg/kg, rats M, 30.8 mg/kg once-weekly IV, Day 0, read-out: T1/2 (converted)): 10.9 h
- Vd [3, 16]: 1.53 L/kg
- AUC(0-inf) [3, 17]: 329 µg·h/mL
- C0 [3, 17]: 202 µg/mL
- clearance [3, 17]: 1.56 mL/min/kg
- half-life ([3]; male, iv, 30.8 mg/kg, rats M, 30.8 mg/kg once-weekly IV, Day 13, read-out: T1/2 (converted)): 10.4 h
- Vd [3, 17]: 1.15 L/kg
- AUC(0-inf) [3, 18]: 342 µg·h/mL
- C0 [3, 18]: 263 µg/mL
- clearance [3, 18]: 2.27 mL/min/kg
- half-life ([3]; male, iv, 46.3 mg/kg, rats M, 46.3 mg/kg once-weekly IV, Day 0, read-out: T1/2 (converted)): 7.99 h
- Vd [3, 18]: 1.41 L/kg
- AUC(0-inf) [3, 19]: 380 µg·h/mL
- C0 [3, 19]: 269 µg/mL
- clearance [3, 19]: 2.03 mL/min/kg
- half-life ([3]; male, iv, 46.3 mg/kg, rats M, 46.3 mg/kg once-weekly IV, Day 13, read-out: T1/2 (converted)): 7.35 h
- Vd [3, 19]: 1.12 L/kg
- DN AUCinf ([3]; rats F, 3.1 mg/kg once-weekly IV, Day 0): 6.15 (μg · h/mL)/(mg/kg)
- Accumulation Ratio [3, 20]: 0.874
- DN AUCinf [3, 20]: 5.37 (μg · h/mL)/(mg/kg)
- DN AUCinf ([3]; rats F, 30.8 mg/kg once-weekly IV, Day 0): 7.70 (μg · h/mL)/(mg/kg)
- Accumulation Ratio [3, 21]: 1.23
- DN AUCinf [3, 21]: 9.45 (μg · h/mL)/(mg/kg)
- DN AUCinf ([3]; rats F, 46.3 mg/kg once-weekly IV, Day 0): 7.80 (μg · h/mL)/(mg/kg)
- Accumulation Ratio [3, 22]: 1.07
- DN AUCinf [3, 22]: 8.35 (μg · h/mL)/(mg/kg)
- DN AUCinf ([3]; rats M, 3.1 mg/kg once-weekly IV, Day 0): 6.19 (μg · h/mL)/(mg/kg)
- Accumulation Ratio [3, 23]: 1.09
- DN AUCinf [3, 23]: 6.76 (μg · h/mL)/(mg/kg)
- DN AUCinf ([3]; rats M, 30.8 mg/kg once-weekly IV, Day 0): 7.63 (μg · h/mL)/(mg/kg)
- Accumulation Ratio [3, 24]: 1.40
- DN AUCinf [3, 24]: 10.7 (μg · h/mL)/(mg/kg)
- DN AUCinf ([3]; rats M, 46.3 mg/kg once-weekly IV, Day 0): 7.39 (μg · h/mL)/(mg/kg)
- Accumulation Ratio [3, 25]: 1.11
- DN AUCinf [3, 25]: 8.20 (μg · h/mL)/(mg/kg)
- accumulation or changes in TK parameters after repeated dosing ([3]; rats, once-weekly dosing for 3 weeks): no accumulation or changes in TK parameters were evident
- fraction unbound at 5 μM [4]: 0.009
- partitioning into red blood cells [5]: No notable partitioning
- Estimated systemic exposure relative to human exposure at 0.025 mg/kg (AUC comparison) ([6]; rat): 158 times
- maternal toxicity and embryo-fetal development toxicity ([6]; rats, 0.015, 0.15, 1.5 mg/kg/day IV): No significant drug-related maternal toxicity and embryo-fetal development toxicity
- No-Observed-Adverse-Effect-Level ([6]; rats, IV, GD6 to GD17): 1.5 mg/kg/day
- Estimated systemic exposure relative to human exposure at 0.025 mg/kg (AUC comparison) ([7]; rabbit): 570 times
- maternal toxicity and embryo-fetal development toxicity ([7]; rabbits, 0.3, 1, 3 mg/kg/day IV): No significant drug-related maternal toxicity and embryo-fetal development toxicity
- No-Observed-Adverse-Effect-Level ([7]; rabbits, IV, GD7 to GD20): 3 mg/kg/day
